Data taken from ChEMBL document CHEMBL5537170, “Design, Synthesis, and Anti-Osteoporotic Characterization of Arginine N-Glycosylated Teriparatide Analogs via the Silver-catalyzed Solid-Phase Glycosylation Strategy” (J Med Chem, 2024).
*1 amine or outer side, *2 acyl side, *3 side chain or, on linkers, in order; H or OH if unused. Where a SMILES comes first, the peptide text is derived from it. [ ]: non-standard residue; d: D form. X6 = C[C@@H]1O[C@@H](NC(=N)NCCC[C@H](N[*:1])C(=O)[*:2])[C@H](O)[C@H](O)[C@H]1O

Assay: Cytotoxicity against C57BL/6 mouse Pre-Osteoblast cells assessed as cell death upto 5 uM incubated for 4 days by CCK-8 assay
Format: toxicity, cell-based
Conditions: 96 h, time 4 day

SMILES | Activity
CC[C@H](C)[C@H](NC(=O)[C@H](CCC(=O)O)NC(=O)[C@H](CO)NC(=O)[C@@H](NC(=O)[C@H](CO)NC(C)=O)C(C)C)C(=O)N[C@@H](CCC(N)=O)C(=O)N[C@@H](CC(C)C)C(=O)N[C@@H](CCSC)C(=O)N[C@@H](Cc1cnc[nH]1)C(=O)N[C@@H](CC(N)=O)C(=O)N[C@@H](CC(C)C)C(=O)NCC(=O)N[C@@H](CCCCN)C(=O)N[C@@H](Cc1cnc[nH]1)C(=O)N[C@@H](CC(C)C)C(=O)N[C@@H](CC(N)=O)C(=O)N[C@@H](CO)C(=O)N[C@@H](CCSC)C(=O)N[C@@H](CCC(=O)O)C(=O)N[C@@H](CCCNC(=N)N)C(=O)N[C@H](C(=O)N[C@@H](CCC(=O)O)C(=O)N[C@@H](Cc1c[nH]c2ccccc12)C(=O)N[C@@H](CC(C)C)C(=O)N[C@@H](CCCNC(=N)N[C@@H]1OC[C@@H](O)[C@H](O)[C@H]1O)C(=O)N[C@@H](CCCCN)C(=O)N[C@@H](CCCCN)C(=O)N[C@@H](CC(C)C)C(=O)N[C@@H](CCC(N)=O)C(=O)N[C@@H](CC(=O)O)C(=O)N[C@H](C(=O)N[C@@H](Cc1cnc[nH]1)C(=O)N[C@@H](CC(N)=O)C(=O)N[C@@H](Cc1ccccc1)C(N)=O)C(C)C)C(C)C | Non-Toxic
CC[C@H](C)[C@H](NC(=O)[C@H](CCC(=O)O)NC(=O)[C@H](CO)NC(=O)[C@@H](NC(=O)[C@H](CO)NC(C)=O)C(C)C)C(=O)N[C@@H](CCC(N)=O)C(=O)N[C@@H](CC(C)C)C(=O)N[C@@H](CCSC)C(=O)N[C@@H](Cc1cnc[nH]1)C(=O)N[C@@H](CC(N)=O)C(=O)N[C@@H](CC(C)C)C(=O)NCC(=O)N[C@@H](CCCCN)C(=O)N[C@@H](Cc1cnc[nH]1)C(=O)N[C@@H](CC(C)C)C(=O)N[C@@H](CC(N)=O)C(=O)N[C@@H](CO)C(=O)N[C@@H](CCSC)C(=O)N[C@@H](CCC(=O)O)C(=O)N[C@@H](CCCNC(=N)N[C@@H]1O[C@H](CO)[C@@H](O[C@H]2O[C@H](CO)[C@@H](O)[C@H](O)[C@H]2O)[C@H](O)[C@H]1O)C(=O)N[C@H](C(=O)N[C@@H](CCC(=O)O)C(=O)N[C@@H](Cc1c[nH]c2ccccc12)C(=O)N[C@@H](CC(C)C)C(=O)N[C@@H](CCCNC(=N)N)C(=O)N[C@@H](CCCCN)C(=O)N[C@@H](CCCCN)C(=O)N[C@@H](CC(C)C)C(=O)N[C@@H](CCC(N)=O)C(=O)N[C@@H](CC(=O)O)C(=O)N[C@H](C(=O)N[C@@H](Cc1cnc[nH]1)C(=O)N[C@@H](CC(N)=O)C(=O)N[C@@H](Cc1ccccc1)C(N)=O)C(C)C)C(C)C | Non-Toxic
CC[C@H](C)[C@H](NC(=O)[C@H](CCC(=O)O)NC(=O)[C@H](CO)NC(=O)[C@@H](NC(=O)[C@H](CO)NC(C)=O)C(C)C)C(=O)N[C@@H](CCC(N)=O)C(=O)N[C@@H](CC(C)C)C(=O)N[C@@H](CCSC)C(=O)N[C@@H](Cc1cnc[nH]1)C(=O)N[C@@H](CC(N)=O)C(=O)N[C@@H](CC(C)C)C(=O)NCC(=O)N[C@@H](CCCCN)C(=O)N[C@@H](Cc1cnc[nH]1)C(=O)N[C@@H](CC(C)C)C(=O)N[C@@H](CC(N)=O)C(=O)N[C@@H](CO)C(=O)N[C@@H](CCSC)C(=O)N[C@@H](CCC(=O)O)C(=O)N[C@@H](CCCNC(=N)N)C(=O)N[C@H](C(=O)N[C@@H](CCC(=O)O)C(=O)N[C@@H](Cc1c[nH]c2ccccc12)C(=O)N[C@@H](CC(C)C)C(=O)N[C@@H](CCCNC(=N)N[C@H]1O[C@H](CO)[C@@H](O)[C@H](O)[C@@H]1O)C(=O)N[C@@H](CCCCN)C(=O)N[C@@H](CCCCN)C(=O)N[C@@H](CC(C)C)C(=O)N[C@@H](CCC(N)=O)C(=O)N[C@@H](CC(=O)O)C(=O)N[C@H](C(=O)N[C@@H](Cc1cnc[nH]1)C(=O)N[C@@H](CC(N)=O)C(=O)N[C@@H](Cc1ccccc1)C(N)=O)C(C)C)C(C)C | Non-Toxic
CC[C@H](C)[C@H](NC(=O)[C@H](CCC(=O)O)NC(=O)[C@H](CO)NC(=O)[C@@H](NC(=O)[C@H](CO)NC(C)=O)C(C)C)C(=O)N[C@@H](CCC(N)=O)C(=O)N[C@@H](CC(C)C)C(=O)N[C@@H](CCSC)C(=O)N[C@@H](Cc1cnc[nH]1)C(=O)N[C@@H](CC(N)=O)C(=O)N[C@@H](CC(C)C)C(=O)NCC(=O)N[C@@H](CCCCN)C(=O)N[C@@H](Cc1cnc[nH]1)C(=O)N[C@@H](CC(C)C)C(=O)N[C@@H](CC(N)=O)C(=O)N[C@@H](CO)C(=O)N[C@@H](CCSC)C(=O)N[C@@H](CCC(=O)O)C(=O)N[C@@H](CCCNC(=N)N[C@@H]1O[C@H](CO)[C@@H](O[C@@H]2O[C@H](CO)[C@H](O)[C@H](O)[C@H]2O)[C@H](O)[C@H]1O)C(=O)N[C@H](C(=O)N[C@@H](CCC(=O)O)C(=O)N[C@@H](Cc1c[nH]c2ccccc12)C(=O)N[C@@H](CC(C)C)C(=O)N[C@@H](CCCNC(=N)N)C(=O)N[C@@H](CCCCN)C(=O)N[C@@H](CCCCN)C(=O)N[C@@H](CC(C)C)C(=O)N[C@@H](CCC(N)=O)C(=O)N[C@@H](CC(=O)O)C(=O)N[C@H](C(=O)N[C@@H](Cc1cnc[nH]1)C(=O)N[C@@H](CC(N)=O)C(=O)N[C@@H](Cc1ccccc1)C(N)=O)C(C)C)C(C)C | Non-Toxic
CC[C@H](C)[C@H](NC(=O)[C@H](CCC(=O)O)NC(=O)[C@H](CO)NC(=O)[C@@H](NC(=O)[C@H](CO)NC(C)=O)C(C)C)C(=O)N[C@@H](CCC(N)=O)C(=O)N[C@@H](CC(C)C)C(=O)N[C@@H](CCSC)C(=O)N[C@@H](Cc1cnc[nH]1)C(=O)N[C@@H](CC(N)=O)C(=O)N[C@@H](CC(C)C)C(=O)NCC(=O)N[C@@H](CCCCN)C(=O)N[C@@H](Cc1cnc[nH]1)C(=O)N[C@@H](CC(C)C)C(=O)N[C@@H](CC(N)=O)C(=O)N[C@@H](CO)C(=O)N[C@@H](CCSC)C(=O)N[C@@H](CCC(=O)O)C(=O)N[C@@H](CCCNC(=N)N[C@H]1O[C@H](CO)[C@@H](O)[C@H](O)[C@@H]1O)C(=O)N[C@H](C(=O)N[C@@H](CCC(=O)O)C(=O)N[C@@H](Cc1c[nH]c2ccccc12)C(=O)N[C@@H](CC(C)C)C(=O)N[C@@H](CCCNC(=N)N)C(=O)N[C@@H](CCCCN)C(=O)N[C@@H](CCCCN)C(=O)N[C@@H](CC(C)C)C(=O)N[C@@H](CCC(N)=O)C(=O)N[C@@H](CC(=O)O)C(=O)N[C@H](C(=O)N[C@@H](Cc1cnc[nH]1)C(=O)N[C@@H](CC(N)=O)C(=O)N[C@@H](Cc1ccccc1)C(N)=O)C(C)C)C(C)C | Non-Toxic
CC[C@H](C)[C@H](NC(=O)[C@H](CCC(=O)O)NC(=O)[C@H](CO)NC(=O)[C@@H](NC(=O)[C@H](CO)NC(C)=O)C(C)C)C(=O)N[C@@H](CCC(N)=O)C(=O)N[C@@H](CC(C)C)C(=O)N[C@@H](CCSC)C(=O)N[C@@H](Cc1cnc[nH]1)C(=O)N[C@@H](CC(N)=O)C(=O)N[C@@H](CC(C)C)C(=O)NCC(=O)N[C@@H](CCCCN)C(=O)N[C@@H](Cc1cnc[nH]1)C(=O)N[C@@H](CC(C)C)C(=O)N[C@@H](CC(N)=O)C(=O)N[C@@H](CO)C(=O)N[C@@H](CCSC)C(=O)N[C@@H](CCC(=O)O)C(=O)N[C@@H](CCCNC(=N)N[C@@H]1O[C@H](CO)[C@@H](O[C@@H]2O[C@H](CO)[C@H](O)[C@H](O)[C@H]2O)[C@H](O)[C@H]1O)C(=O)N[C@H](C(=O)N[C@@H](CCC(=O)O)C(=O)N[C@@H](Cc1c[nH]c2ccccc12)C(=O)N[C@@H](CC(C)C)C(=O)N[C@@H](CCCNC(=N)N[C@@H]1O[C@H](CO)[C@@H](O[C@@H]2O[C@H](CO)[C@H](O)[C@H](O)[C@H]2O)[C@H](O)[C@H]1O)C(=O)N[C@@H](CCCCN)C(=O)N[C@@H](CCCCN)C(=O)N[C@@H](CC(C)C)C(=O)N[C@@H](CCC(N)=O)C(=O)N[C@@H](CC(=O)O)C(=O)N[C@H](C(=O)N[C@@H](Cc1cnc[nH]1)C(=O)N[C@@H](CC(N)=O)C(=O)N[C@@H](Cc1ccccc1)C(N)=O)C(C)C)C(C)C | Non-Toxic
CC[C@H](C)[C@H](NC(=O)[C@H](CCC(=O)O)NC(=O)[C@H](CO)NC(=O)[C@@H](NC(=O)[C@H](CO)NC(C)=O)C(C)C)C(=O)N[C@@H](CCC(N)=O)C(=O)N[C@@H](CC(C)C)C(=O)N[C@@H](CCSC)C(=O)N[C@@H](Cc1cnc[nH]1)C(=O)N[C@@H](CC(N)=O)C(=O)N[C@@H](CC(C)C)C(=O)NCC(=O)N[C@@H](CCCCN)C(=O)N[C@@H](Cc1cnc[nH]1)C(=O)N[C@@H](CC(C)C)C(=O)N[C@@H](CC(N)=O)C(=O)N[C@@H](CO)C(=O)N[C@@H](CCSC)C(=O)N[C@@H](CCC(=O)O)C(=O)N[C@@H](CCCNC(=N)N[C@@H]1O[C@@H](C)[C@H](O)[C@@H](O)[C@H]1O)C(=O)N[C@H](C(=O)N[C@@H](CCC(=O)O)C(=O)N[C@@H](Cc1c[nH]c2ccccc12)C(=O)N[C@@H](CC(C)C)C(=O)N[C@@H](CCCNC(=N)N)C(=O)N[C@@H](CCCCN)C(=O)N[C@@H](CCCCN)C(=O)N[C@@H](CC(C)C)C(=O)N[C@@H](CCC(N)=O)C(=O)N[C@@H](CC(=O)O)C(=O)N[C@H](C(=O)N[C@@H](Cc1cnc[nH]1)C(=O)N[C@@H](CC(N)=O)C(=O)N[C@@H](Cc1ccccc1)C(N)=O)C(C)C)C(C)C | Non-Toxic
CC[C@H](C)[C@H](NC(=O)[C@H](CCC(=O)O)NC(=O)[C@H](CO)NC(=O)[C@@H](NC(=O)[C@H](CO)NC(C)=O)C(C)C)C(=O)N[C@@H](CCC(N)=O)C(=O)N[C@@H](CC(C)C)C(=O)N[C@@H](CCSC)C(=O)N[C@@H](Cc1cnc[nH]1)C(=O)N[C@@H](CC(N)=O)C(=O)N[C@@H](CC(C)C)C(=O)NCC(=O)N[C@@H](CCCCN)C(=O)N[C@@H](Cc1cnc[nH]1)C(=O)N[C@@H](CC(C)C)C(=O)N[C@@H](CC(N)=O)C(=O)N[C@@H](CO)C(=O)N[C@@H](CCSC)C(=O)N[C@@H](CCC(=O)O)C(=O)N[C@@H](CCCNC(=N)N[C@@H]1O[C@@H](C)[C@H](O)[C@@H](O)[C@H]1O)C(=O)N[C@H](C(=O)N[C@@H](CCC(=O)O)C(=O)N[C@@H](Cc1c[nH]c2ccccc12)C(=O)N[C@@H](CC(C)C)C(=O)N[C@@H](CCCNC(=N)N[C@@H]1O[C@@H](C)[C@H](O)[C@@H](O)[C@H]1O)C(=O)N[C@@H](CCCCN)C(=O)N[C@@H](CCCCN)C(=O)N[C@@H](CC(C)C)C(=O)N[C@@H](CCC(N)=O)C(=O)N[C@@H](CC(=O)O)C(=O)N[C@H](C(=O)N[C@@H](Cc1cnc[nH]1)C(=O)N[C@@H](CC(N)=O)C(=O)N[C@@H](Cc1ccccc1)C(N)=O)C(C)C)C(C)C (Ac-SVSEIQLMHNLGKHLNSME[X6]VEWL[X6]KKLQDVHNF-NH2) | Non-Toxic
